# Patent publication US20250277012A1 (Protagonist Therapeutics, Inc., priority 2021, published 2025)
# Like-named read-outs stand apart in the source and are kept apart here. Starred links: 1 amine or outer side, 2 acyl side, 3 side chain; linkers in the order of their positions; H or OH if unused. Positions of bridges follow the written chain, without caps; N, C: chain ends. Non-standard residues stand in square brackets, D forms with d. Residues, ends and D or L forms follow the SMILES beside them. Groups on a side chain read outwards from the residue. *: point of attachment. CH3O(CH2CH2O)11CH2CH2CO = COCCOCCOCCOCCOCCOCCOCCOCCOCCOCCOCCOCCC(=O)*; X5 = CCCCCCCCCCCCCCCC(=O)NCC[N+](C)(C)CC(=O)*; C18 diacid = O=C(O)CCCCCCCCCCCCCCCCC(=O)*; Dip = N[C@H](C(=O)O)C(c1ccccc1)c1ccccc1; Phenylacetyl(4-F) = O=C(Cc1ccc(F)cc1)*; γGlu = O=C(O)[C@H](CCC(=O)[*:2])N[*:1]; NMeY = CN[C@@H](Cc1ccc(O)cc1)C(=O)O; Palmitoyl = CCCCCCCCCCCCCCCC(=O)*; NMeF = CN[C@@H](Cc1ccccc1)C(=O)O; dNMeF = CN[C@H](Cc1ccccc1)C(=O)O; β3hF = N[C@H](CC(=O)O)Cc1ccccc1; NMeK = CN[C@@H](CCCCN)C(=O)O; Isovaleryl = CC(C)CC(=O)*; Dap = NC[C@H](N)C(=O)O; AEEA = NCCOCCOCC(=O)O; Ahx = NCCCCCC(=O)O
# Assays:
# [1] = biological target: human ferroportin (SLC40A1) fused in frame with the GFP protein (human) (UniProt Q9NP59); experiment: cell-based or functional assay
# ferroportin [2] = biological target: T1, ferroportin (Homo sapiens, UniProt Q9NP59); experiment: FPN activity assay: ferroportin-GFP internalization/degradation in HEK293 cells; format: cell-based; design: expressed in transfected cells; conditions: read-out: FPN IC50
# T1 sequence (Q9NP59 1-571): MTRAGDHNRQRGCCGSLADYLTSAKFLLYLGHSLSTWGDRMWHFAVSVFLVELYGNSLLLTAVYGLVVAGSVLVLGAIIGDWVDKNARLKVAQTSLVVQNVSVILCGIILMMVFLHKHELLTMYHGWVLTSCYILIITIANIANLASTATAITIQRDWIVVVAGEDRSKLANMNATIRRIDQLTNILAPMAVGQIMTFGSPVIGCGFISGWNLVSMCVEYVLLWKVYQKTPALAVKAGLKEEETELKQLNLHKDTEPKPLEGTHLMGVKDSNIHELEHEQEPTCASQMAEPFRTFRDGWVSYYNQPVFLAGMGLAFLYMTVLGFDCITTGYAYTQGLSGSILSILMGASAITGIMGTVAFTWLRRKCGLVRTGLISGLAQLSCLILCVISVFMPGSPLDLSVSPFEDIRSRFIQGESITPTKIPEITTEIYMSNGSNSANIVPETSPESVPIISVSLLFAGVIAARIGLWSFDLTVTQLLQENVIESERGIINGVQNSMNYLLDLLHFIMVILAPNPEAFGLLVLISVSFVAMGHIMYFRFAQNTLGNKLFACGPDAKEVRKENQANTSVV
# Protocol: Following internalization, the ferroporin protein is degraded.
# A retro inverse peptide is a peptide with a reversed sequence in all D amino acids. An example is that Hy-Glu-Thr-His-NH2 becomes Hy-DHis-DThr-DGlu-NH2. The EC50 of these reference compounds for ferroportin internalization/degradation was determined according to the FPN activity assay described above. These peptides served as control standards.
# ferroportin [3] = biological target: T1, ferroportin; experiment: T47D cell-based ferroportin internalization assay in presence of mouse serum albumin (MSA); design: a human breast carcinoma adherent cell line which endogenously expresses ferroportin; host or cells: T47D
# Procedure, shortened: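 Peptide potency for inducing ferroportin internalization was measured in T47D cells in the presence of serum albumin. Cells grown in RPMI with fetal bovine serum were seeded in 96-well plates at 80-100 k cells per well in 100 ul and rested overnight. Dilution series of test peptides were preincubated 30 min at room temperature, then added to the cells after the medium was aspirated.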
# [4] = ferroportin-GFP internalization/degradation, HEK293 cells, Table 6E
# [5] = T47D internalization assay in presence of mouse serum albumin (MSA), Table 6E
# [6] = Table 6E, ferroportin-GFP internalization/degradation, at least 18 hours incubation
# [7] = Table 6E, T47D internalization assay with MSA
# [8] = ferroportin-GFP HEK293 cells, at least 18 hours
# [9] = T47D cells, 0.5% mouse serum albumin, 1 hr incubation
Molecule,DC50 (ferroportin [2]; [4]),IC50 (ferroportin [3]; [5]),also measured
Hepcidin (ligand),,,Potency EC50 [1]: 34 nM
CCCCCCCCCCCCCCCC(=O)N[C@@H](CCC(=O)NCCCC[C@@H](C(=O)N[C@H](CC(=O)N[C@H](CCCCNC(=O)CCOCCOCCOCCOCCOCCOCCOCCOCCOCCOCCOCCOC)C(N)=O)Cc1ccccc1)N(C)C(=O)[C@@H]1CSSC[C@H](NC(=O)[C@@H]2CCCN2C(=O)[C@@H](NC(=O)[C@H](Cc2cnc[nH]2)NC(=O)[C@@H](NC(=O)[C@H](CCC(=O)O)NC(=O)CC(C)C)[C@@H](C)O)C(c2ccccc2)c2ccccc2)C(=O)N1)C(=O)O [compound 222] (Isovaleryl-ETH[Dip]PCC[NMeK]([γGlu-Palmitoyl])[β3hF][dK](CH3O(CH2CH2O)11CH2CH2CO)-NH2; disulfide 6-7),,,DC50 (ferroportin [2]; [6]): 10 to 100 nM; IC50 (ferroportin [3]; [7]): 1 to 10 nM
CC[C@H](C)[C@H](NC(=O)[C@@H]1CSSC[C@H](NC(=O)[C@@H](NC(=O)[C@H](Cc2c[nH]cn2)NC(=O)[C@@H](NC(=O)[C@H](CCC(=O)O)NC(=O)CC(C)C)[C@@H](C)O)C(c2ccccc2)c2ccccc2)C(=O)N1)C(=O)N[C@@H](CCCCNC(=O)COCCOCCNC(=O)COCCOCCNC(=O)CCCCCNC(=O)CCCCCCCCCCCCCCCCC(=O)O)C(=O)N[C@H](CC(=O)N[C@H](CCCCN)C(N)=O)Cc1ccccc1 [Compd 21] (Isovaleryl-ETH[Dip]CCIK([AEEA-AEEA-Ahx-C18 diacid])[β3hF][dK]-NH2; disulfide 5-6),,,DC50 (ferroportin [2]; [8]): 10 to 100 nM; IC50 (ferroportin [3]; [9]): 10 to 100 nM
CCCCCCCCCCCCCCCC(=O)NCC[N+](C)(C)CC(=O)NCCCC[C@H]1C(=O)N[C@@H](C(c2ccccc2)c2ccccc2)C(=O)N[C@@H](C(N)=O)CCCCNC(=O)CC[C@H](NC(=O)CC(C)C)C(=O)N[C@@H]([C@@H](C)O)C(=O)N[C@@H](Cc2c[nH]cn2)C(=O)N[C@@H](C(c2ccccc2)c2ccccc2)C(=O)N2CCC[C@H]2C(=O)N[C@H]2CSSC[C@H](NC2=O)C(=O)N1C [compound 143] (Isovaleryl-ETH[Dip]PCC[NMeK](X5)[Dip][dK]-NH2; lactam 1-10; disulfide 6-7),,,DC50 (ferroportin [2]; [6]): 10 to 100 nM; IC50 (ferroportin [3]; [7]): 1 to 10 nM
CCCCCCCCCCCCCCCC(=O)NCCCCCC(=O)NCCCC[C@H](NC(=O)[C@@H]1CSSC[C@H](NC(=O)[C@@H]2CCCN2C(=O)[C@@H](NC(=O)[C@H](Cc2c[nH]cn2)NC(=O)[C@@H](NC(=O)[C@H](CCC(=O)O)NC(=O)CC(C)C)[C@@H](C)O)C(c2ccccc2)c2ccccc2)C(=O)N1)C(=O)N[C@H](CC(=O)N[C@H](CCCCN)C(N)=O)Cc1ccccc1 [Compd 39] (Isovaleryl-ETH[Dip]PCCK([Ahx-Palmitoyl])[β3hF][dK]-NH2; disulfide 6-7),,,DC50 (ferroportin [2]; [8]): 10 to 100 nM; IC50 (ferroportin [3]; [9]): 1 to 10 nM

# Now from value to molecule, other results behind:
DC50 (ferroportin [2]; [4]),IC50 (ferroportin [3]; [5]),Molecule,also measured
10 to 100 nM,10 to 100 nM,CC(C)CC(=O)N[C@@H](CCC(=O)O)C(=O)N[C@H](C(=O)N[C@@H](Cc1c[nH]cn1)C(=O)N[C@H](C(=O)N1CCC[C@H]1C(=O)N[C@H]1CSSC[C@@H](C(=O)N(C)[C@@H](CCCCNC(=O)COCCOCCNC(=O)COCCOCCNC(=O)[C@H](CN)NC(=O)CCCCCCCCCCCCCCCCC(=O)O)C(=O)N[C@H](CC(=O)N[C@H](CCCCN)C(=O)N(C)[C@@H](Cc2ccc(O)cc2)C(N)=O)Cc2ccccc2)NC1=O)C(c1ccccc1)c1ccccc1)[C@@H](C)O [compound 259] (Isovaleryl-ETH[Dip]PCC[NMeK]([AEEA-AEEA-Dap-C18 diacid])[β3hF][dK][NMeY]-NH2; disulfide 6-7),
10 to 100 nM,10 to 100 nM,COCCOCCOCCOCCOCCOCCOCCOCCOCCOCCOCCOCCC(=O)NCCCC[C@@H](NC(=O)C[C@H](Cc1ccccc1)NC(=O)[C@H](CCCCNC(=O)COCCOCCNC(=O)COCCOCCNC(=O)[C@H](CN)NC(=O)CCCCCCCCCCCCCCCCC(=O)O)N(C)C(=O)[C@@H]1CSSC[C@H](NC(=O)[C@@H]2CCCN2C(=O)[C@@H](NC(=O)[C@H](Cc2c[nH]cn2)NC(=O)[C@@H](NC(=O)[C@H](CCC(=O)OC)NC(=O)CC(C)C)[C@@H](C)O)C(c2ccccc2)c2ccccc2)C(=O)N1)C(N)=O [compound 254] (Isovaleryl-E(OMe)TH[Dip]PCC[NMeK]([AEEA-AEEA-Dap-C18 diacid])[β3hF][dK](CH3O(CH2CH2O)11CH2CH2CO)-NH2; disulfide 6-7),
10 to 100 nM,10 to 100 nM,CC(C)CC(=O)N[C@@H](CCC(=O)O)C(=O)N[C@H](C(=O)N[C@@H](Cc1c[nH]cn1)C(=O)N[C@H](C(=O)N1CCC[C@H]1C(=O)N[C@H]1CSSC[C@@H](C(=O)N(C)[C@@H](CCCCNC(=O)COCCOCCNC(=O)COCCOCCNC(=O)[C@H](CN)NC(=O)CCCCCCCCCCCCCCCCC(=O)O)C(=O)N[C@H](CC(=O)N[C@H](CCCCN)C(=O)N(C)[C@@H](Cc2ccccc2)C(N)=O)Cc2ccccc2)NC1=O)C(c1ccccc1)c1ccccc1)[C@@H](C)O [compound 263] (Isovaleryl-ETH[Dip]PCC[NMeK]([AEEA-AEEA-Dap-C18 diacid])[β3hF][dK][NMeF]-NH2; disulfide 6-7),
10 to 100 nM,10 to 100 nM,C[C@@H](O)[C@H](NC(=O)[C@H](CCC(=O)O)NC(=O)Cc1ccc(F)cc1)C(=O)N[C@@H](Cc1c[nH]cn1)C(=O)N[C@H](C(=O)N1CCC[C@H]1C(=O)N[C@H]1CSSC[C@@H](C(=O)N(C)[C@@H](CCCCNC(=O)COCCOCCNC(=O)COCCOCCNC(=O)[C@H](CN)NC(=O)CCCCCCCCCCCCCCCCC(=O)O)C(=O)N[C@H](CC(=O)N[C@H](CCCCN)C(N)=O)Cc2ccccc2)NC1=O)C(c1ccccc1)c1ccccc1 [compound 298] ({Phenylacetyl(4-F)}-ETH[Dip]PCC[NMeK]([AEEA-AEEA-Dap-C18 diacid])[β3hF][dK]-NH2; disulfide 6-7),
10 to 100 nM,1 to 10 nM,CC(C)CC(=O)N[C@@H](CCC(=O)O)C(=O)N[C@H](C(=O)N[C@@H](Cc1cnc[nH]1)C(=O)N[C@H](C(=O)N1CCC[C@H]1C(=O)N[C@H]1CSSC[C@@H](C(=O)N(C)[C@@H](CCCCNC(=O)COCCOCCNC(=O)COCCOCCNC(=O)[C@H](CN)NC(=O)CCCCCCCCCCCCCCCCC(=O)O)C(=O)N[C@H](CC(=O)N[C@H](CCCCN)C(=O)N(C)[C@H](Cc2ccccc2)C(N)=O)Cc2ccccc2)NC1=O)C(c1ccccc1)c1ccccc1)[C@@H](C)O [compound 250] (Isovaleryl-ETH[Dip]PCC[NMeK]([AEEA-AEEA-Dap-C18 diacid])[β3hF][dK][dNMeF]-NH2; disulfide 6-7),
10 to 100 nM,10 to 100 nM,CC(C)CC(=O)N[C@@H](CCC(=O)O)C(=O)N[C@H](C(=O)N[C@@H](Cc1c[nH]cn1)C(=O)N[C@H](C(=O)N1CCC[C@H]1C(=O)N[C@H]1CSSC[C@@H](C(=O)N(C)[C@@H](CCCCNC(=O)COCCOCCNC(=O)COCCOCCNC(=O)[C@H](CN)NC(=O)CCCCCCCCCCCCCCCCC(=O)O)C(=O)N[C@H](CC(=O)N[C@H](CCCCN)C(N)=O)Cc2ccccc2)NC1=O)C(c1ccccc1)c1ccccc1)[C@@H](C)O [compound 306] (Isovaleryl-ETH[Dip]PCC[NMeK]([AEEA-AEEA-Dap-C18 diacid])[β3hF][dK]-NH2; disulfide 6-7),
